Marks after values point to notes of the source that are not given here.
How the values were obtained:
p16-3MR mice [1] = experiment: RT-qPCR verification of serum circulating microRNA changes, one-way ANOVA; type: in vivo, mouse; conditions: for change of serum level following senolytic treatment (DOX/GCV compared to DOX): p<0.05, in words; for One-way ANOVA Senolytic Treatment (DOX/GCV) / One-way ANOVA Senescence (DOX vs PBS): serum; for One-way ANOVA Senolytic Treatment (DOX/GCV): DOX/GCV compared to DOX; for One-way ANOVA Senescence (DOX vs PBS): n=8 per group, male and female mice; for regulation in serum after exposure to DOX compared to PBS: independent of gender, in words
Experimental: p16-3MR (Demaria et al, 2014, Developmental Cell 31:722-733) mice were bred in house and maintained in the AALAC-accredited Buck Institute for Research on Aging (Novato, Calif.) animal facility. 10 to 12-week-old p16-3MR […] mice were used for experiments. Mice were divided in 4 groups and each group consisted of 8 animals, 5 female, and 3 male, respectively. In group A, control mice were injected with PBS. In group B, mice were treated with Ganciclovir (GCV) (Sigma-Aldrich) dissolved in PBS for 5 consecutive days. In group C, mice were treated with one dose of Doxorubicine hydrochloride (Sigma-Aldrich) dissolved in PBS. In group D, mice were first treated with Doxorubicine and then treated 10 days later with GCV. Mice were intraperitoneally injected with one dose of 10 mg/kg of Doxorubicine hydrochloride, and GCV was administered daily by intraperitoneal injections for 5 consecutive days at concentration of 25 mg/kg in PBS. 4 days after the last GCV dose, animals were euthanized with CO2 and blood was withdrawn immediately. Blood was then incubated for 30 min at room temperature and centrifuged at 3400×g for 10 min. Serum was carefully collected in a sterile tube without disturbing the cell pellet and stored at −80° C. for further experiments.
Total RNA extraction was performed from 200 μl of serum using the Qiagen miRNeasy extraction kit (Qiagen, Germany). RNA yield was quality checked for homogenous extraction efficiency and hemolysis on the basis qPCR amplification of spiked-in as well as hemolysis-responsive RNAs (Blondal et al). In total 2 μl total RNA were used for reverse transcription using the Exiqon Universal RT kit II (Exiqon, Denmark). The obtained cDNA samples were pre-diluted 1:40 and subsequently mixed with SYBR Green® Mix (Exiqon, Denmark) to achieve a 1:100 dilution. The mix was distributed to primer-coated 384-well plates containing dried primer pairs for 96 selected microRNA or quality control assays. QPCR amplification was performed on a Roche LightCycler 480 II, using the manufacturer's recommendation for annealing, extension and denaturation.
Raw Cq-values were computed using the 2nd derivative method. Melting curves were checked for peaks to ensure specificity of the amplification reactions. Cq-values were subsequently normalized using Spike-In controls as references, to reduce technical noise in the data.
(§1) Statistical analysis was performed using Medcalc (version 18.2.1). Normal distribution was assessed using D'Agostino-Pearson test, where normality was accepted at p>0.05. One-way ANOVA together together with Student-Newman-Keuls test for all pairwise comparisons (post-hoc tests) was used to identify significant changes between groups (p<0.05). To assess the discriminatory power of individual microRNAs, receiver operating characteristic (ROC) analysis was applied. ROC curves were plotted using sensitivity (y-axis) and 1-specificity (x-axis) and the area under the ROC curve (AUC) was calculated. MicroRNAs with AUC-values of >0.7 were considered as good discriminators/biomarkers. MicroRNAs with AUC-values >0.8 were considered very good discriminators/biomarkers.

p16-3MR mice [2] = experiment: ROC analysis of discriminatory power of circulating microRNAs; type: in vivo, mouse; conditions: serum, RT-qPCR, symbol after the number = significance; for ROC Analysis AUC Senescence: DOX vs PBS; for ROC Analysis AUC Senolytic Treatment: DOX/GCV vs DOX
Experimental: as §1
In order to assess the diagnostic power of circulating microRNAs for the exposure with senescence inducing substances (DOX) as well as the efficacy of senolytic treatment, ROC analysis was performed and the area-under-the-curve (AUC) was calculated. […] Table 23 below summarizes AUC values as well as 95% confidence intervals for 24 selected circulating microRNAs.

## miR-23b-3p: circulating microRNA biomarker, SEQ ID No. 47 (AUCACAUUGCCAGGGAUUACC; expressed or natural sequence; listed as Homo sapiens)
p16-3MR mice [1]
  change of serum level following senolytic treatment (DOX/GCV compared to DOX): significantly changed
  One-way ANOVA Senolytic Treatment (DOX/GCV): * (significant p < 0.05)
  One-way ANOVA Senescence (DOX vs PBS): ○
p16-3MR mice [2]
  ROC Analysis AUC Senescence: 0.563°
  ROC Analysis AUC Senolytic Treatment: 0.875*

## miR-31-5p: circulating microRNA biomarker, SEQ ID No. 87 (AGGCAAGAUGCUGGCAUAGCU; expressed or natural sequence; listed as Homo sapiens)
p16-3MR mice [1]
  change of serum level following senolytic treatment (DOX/GCV compared to DOX): significantly changed
  One-way ANOVA Senolytic Treatment (DOX/GCV): ○
  One-way ANOVA Senescence (DOX vs PBS): + (by trend p < 0.2)
p16-3MR mice [2]
  ROC Analysis AUC Senescence: 0.688+
  ROC Analysis AUC Senolytic Treatment: 0.672°

## miR-34a-3p: circulating microRNA biomarker, SEQ ID No. 59 (CAAUCAGCAAGUAUACUGCCCU; expressed or natural sequence; listed as Homo sapiens)
p16-3MR mice [1]
  regulation in serum after exposure to DOX compared to PBS: significantly (up- or down-regulated)
  One-way ANOVA Senolytic Treatment (DOX/GCV): ○
  One-way ANOVA Senescence (DOX vs PBS): * (significant p < 0.05)
p16-3MR mice [2]
  ROC Analysis AUC Senescence: 0.953*
  ROC Analysis AUC Senolytic Treatment: 0.5°

## miR-125a-5p: circulating microRNA biomarker, SEQ ID No. 90 (UCCCUGAGACCCUUUAACCUGUGA; expressed or natural sequence; listed as Homo sapiens)
p16-3MR mice [1]
  change of serum level following senolytic treatment (DOX/GCV compared to DOX): significantly changed
  One-way ANOVA Senolytic Treatment (DOX/GCV): * (significant p < 0.05)
  One-way ANOVA Senescence (DOX vs PBS): + (by trend p < 0.2)
p16-3MR mice [2]
  ROC Analysis AUC Senescence: 0.742+
  ROC Analysis AUC Senolytic Treatment: 0.789*

## miR-181b-5p: circulating microRNA biomarker, SEQ ID No. 84 (AACAUUCAUUGCUGUCGGUGGGU; expressed or natural sequence; listed as Homo sapiens)
p16-3MR mice [1]
  change of serum level following senolytic treatment (DOX/GCV compared to DOX): significantly changed
  One-way ANOVA Senolytic Treatment (DOX/GCV): + (by trend p < 0.2)
  One-way ANOVA Senescence (DOX vs PBS): + (by trend p < 0.2)
p16-3MR mice [2]
  ROC Analysis AUC Senescence: 0.680+
  ROC Analysis AUC Senolytic Treatment: 0.75+

## miR-183-3p: circulating microRNA biomarker, SEQ ID No. 85 (GUGAAUUACCGAAGGGCCAUAA; expressed or natural sequence; listed as Homo sapiens)
p16-3MR mice [1]
  change of serum level following senolytic treatment (DOX/GCV compared to DOX): significantly changed
  One-way ANOVA Senolytic Treatment (DOX/GCV): * (significant p < 0.05)
  One-way ANOVA Senescence (DOX vs PBS): ○
p16-3MR mice [2]
  ROC Analysis AUC Senescence: 0.563°
  ROC Analysis AUC Senolytic Treatment: 0.891*

## miR-199a-5p: circulating microRNA biomarker, SEQ ID No. 81 (CCCAGUGUUCAGACUACCUGUUC; expressed or natural sequence; listed as Homo sapiens)
p16-3MR mice [1]
  regulation in serum after exposure to DOX compared to PBS: significantly (up- or down-regulated)
  One-way ANOVA Senolytic Treatment (DOX/GCV): + (by trend p < 0.2)
  One-way ANOVA Senescence (DOX vs PBS): * (significant p < 0.05)
p16-3MR mice [2]
  ROC Analysis AUC Senescence: 0.906*
  ROC Analysis AUC Senolytic Treatment: 0.781*

## miR-199b-5p: circulating microRNA biomarker, SEQ ID No. 82 (CCCAGUGUUUAGACUAUCUGUUC; expressed or natural sequence; listed as Homo sapiens)
p16-3MR mice [1]
  regulation in serum after exposure to DOX compared to PBS: significantly (up- or down-regulated)
  One-way ANOVA Senolytic Treatment (DOX/GCV): + (by trend p < 0.2)
  One-way ANOVA Senescence (DOX vs PBS): * (significant p < 0.05)
p16-3MR mice [2]
  ROC Analysis AUC Senescence: 0.750+
  ROC Analysis AUC Senolytic Treatment: 0.734+

## miR-215-5p: circulating microRNA biomarker, SEQ ID No. 86 (AUGACCUAUGAAUUGACAGAC; expressed or natural sequence; listed as Homo sapiens)
p16-3MR mice [1]
  change of serum level following senolytic treatment (DOX/GCV compared to DOX): significantly changed
  One-way ANOVA Senolytic Treatment (DOX/GCV): * (significant p < 0.05)
  One-way ANOVA Senescence (DOX vs PBS): ○
p16-3MR mice [2]
  ROC Analysis AUC Senescence: 0.531°
  ROC Analysis AUC Senolytic Treatment: 0.922*

From patent US11814680B2, “Biomarkers for detecting senescent cells” (Universität für Bodenkultur Wien, priority 2017, dated 2023)
